According to patent US4124369A, “Combating fungi and controlling plant growth with 1-amido-1-azolyl-2-hydroxy- or -keto-alkanes” (Bayer Aktiengesellschaft, priority 1976, dated 1978):

Tested on: tobacco plants
Experiment: Inhibition of the growth of side shoots of tobacco
Type: in vivo
Conditions: 0.2%; after 3 weeks; 100% = absence of side shoots
Source text: inhibition of the growth of side shoots of tobacco
(§1) Solvent: 10 parts by weight of methanol
Emulsifier: 2 parts by weight of polyoxyethylene-sorbitan monolaurate
To prepare a suitable preparation of active compound, 1 parts by weight of active compound was mixed with the stated amounts of solvent and emulsifier and the mixture was made up to the desired concentration with water.
The shoot tips of about 50 cm high tobacco plants were broken off. On the following day, the plants were sprayed with the preparations of active compound until dripping wet. After 3 weeks, the side shoots which had formed during this time were broken off. All the side shoots of one treatment were weighed. The weight of the side shoots of the treated plants was compared with the weight of the side shoots of the untreated control plant. 100% inhibition denoted the absence of side shoots and 0% denoted a growth of side shoots which correspond to that of the control plants.
The active compounds, the concentrations of the active compounds and results can be seen from the table which follows: […]

Row | SMILES | Inhibition in % (growth of side shoots) [%]
1 | CC(C)(C)C(=O)C(NC(=O)COc1ccc(Cl)cc1Cl)n1ccnc1 (centres unmarked) [drawing 42] | 97

Tested on: Erysiphe graminis var. hordei
Experiment: Powdery mildew of barley test/systemic (seed treatment)
Type: in vivo, Erysiphe graminis var. hordei on barley
Conditions: 25% by weight active compound in the dressing, 10 g dressing/kg of seed, systemic, 0% = no infection
Procedure: powdery mildew of barley (Erysiphe graminis var.hordei)/systemic (fungal disease of cereal shoots) The active compounds were used as pulverulent seed treatment agents. They were prepared by extending the particular active compound with a mixture of equal parts by weight of talc and kieselguhr to give a finely pulverulent mixture of the desired concentration of active compound. For the treatment of seed, barley seed was shaken with the extended active compound in a closed glass bottle. The seed was sown at the rate of 3 × 12 grains in flowerpots, 2 cm deep in a mixture of one part by volume of Fruhstorfer standard soil and one part by volume of quartz sand. The germination and emergence took place under favorable conditions in a greenhouse. 7 days after sowing, when the barley plants have developed their first leaf, they were dusted with fresh spores of Erysiphe graminis var. hordei and grown on at 21°-22° C. and 80-90% relative atmospheric humidity and 16 hours' exposure to light. The typical mildew pustules formed on the leaves over the course of 6 days. The degree of infection was expressed as a percentage of the infection of the untreated control plants. Thus, 0% denoted no infection and 100% denoted the same degree of infection as in the case of the untreated control. […] The active compounds and concentrations of active compound in the seed treatment agent, as well as the amount used of the latter, and the percentage infection with mildew can be seen from the table which follows: […]

Row | SMILES | Infection in % of the untreated control [%]
2 | CC(C)(C)C(=O)C(NC(=O)c1ccccc1Cl)n1ccnc1 (centres unmarked) | 55.0
3 | CC(C)(C)C(=O)C(NC(=O)Cc1ccccc1)n1ccnc1 (centres unmarked) | 50.0
4 | CC(C)(C)C(=O)NC(C(=O)C(C)(C)C)n1cncn1 (centres unmarked) | 25.0
5 | c1ccc(C(c2ccccc2)(c2ccccc2)n2cncn2)cc1 [drawing 27, reference compound] | 88.8
6 | CC(C)(C)C(=O)C(NC(=O)c1ccccc1Cl)n1cncn1 (centres unmarked) [drawing 29] | 0.0
7 | CC(C)(C)C(=O)C(NC(=O)c1ccccc1)n1cncn1 (centres unmarked) [drawing 30] | 0.0
8 | CC(C)(C)C(O)C(NC(=O)c1ccccc1Cl)n1ccnc1 (centres unmarked) [drawing 31] | 58.8
9 | CC(C)(C)C(=O)C(NC(=O)c1cccc(Cl)c1)n1ccnc1 (centres unmarked) [drawing 32] | 50.0
10 | CC(C)(C)C(O)C(NC(=O)c1cc(Cl)ccc1Cl)n1cncn1 (centres unmarked) [drawing 33] | 25.0
11 | CC(C)(C)C(=O)C(NC(=O)Cc1ccccc1)n1cncn1 (centres unmarked) [drawing 34] | 0.0
12 | CC(C)(C)C(O)C(NC(=O)c1ccccc1)n1cncn1 (centres unmarked) [drawing 35] | 17.5

Tested on: Erysiphe graminis var. hordei
Experiment: Shoot treatment test/powdery mildew of cereals/protective
Type: in vivo, Erysiphe graminis var. hordei on barley (Amsel variety)
Conditions: 0.01% by weight active compound in the spray liquor; protective; 6 days; 0% = no infection
Procedure: shoot treatment test/powdery mildew of cereals/protective (leaf-destructivemycosis)
To produce a suitable preparation of active compound, 0.25 part by weight of active compound was taken up in 25 parts by weight of dimethylformamide and 0.06 part by weight of emulsifier alkylarylpolyglycol ether and then 975 parts by weight of water were added. The concentration was diluted with water to the desired final concentration of the spray liquor.
To test for protective activity, single-leaved young barley plants of the Amsel variety were sprayed with the preparation of active compound until dew-moist. After drying, the barley plants were dusted with spores of Erysiphe graminis var. hordei.
After 6 days' dwell time of the plants at a temperature of 21°-22° C. and 80-90% atmospheric humidity the occurrence of mildew pustules on the plants was evaluated. The degree of infection was expressed as a percentage of the infection of the untreated control plants. 0% denoted no infection and 100% denoted that same degree of infection as in the case of the untreated control.
The active compounds, the concentrations of the active compounds in the spray liquor and degrees of infection can be seen from the table which follows: […]

Row | SMILES | Infection in % of the untreated control [%]
13 | CC(C)(C)C(=O)C(NC(=O)COc1ccccc1)n1cncn1 (centres unmarked) | 32.5
14 | c1ccc(C(c2ccccc2)(c2ccccc2)n2cncn2)cc1 [drawing 13, reference compound] | 100.0
15 | CC(C)(C)C(=O)C(NC(=O)c1ccc(Cl)cc1)n1cncn1 (centres unmarked) [drawing 14] | 0.0

Same assay, conditions: 0.025% by weight active compound in the spray liquor; protective; 6 days; 0% = no infection

Row | SMILES | Infection in % of the untreated control [%]
16 | CC(C)(C)C(=O)C(NC(=O)c1ccccc1)n1ccnc1 (centres unmarked) | 12.5
17 | CC(C)(C)C(=O)C(NC(=O)c1cc(Cl)ccc1Cl)n1cncn1 (centres unmarked) | 50.0
18 | CC(C)(C)C(=O)C(NC(=O)c1cc(Cl)ccc1Cl)n1ccnc1 (centres unmarked) | 21.3
19 | CC(C)(C)C(=O)NC(C(=O)C(C)(C)C)n1ccnc1 (centres unmarked) | 30.0
20 | c1ccc(C(c2ccccc2)(c2ccccc2)n2cncn2)cc1 [drawing 13, reference compound] | 100.0
21 | CC(C)(C)C(=O)C(NC(=O)c1ccccc1Cl)n1cncn1 (centres unmarked) [drawing 16] | 50.0
22 | CC(C)(C)C(=O)C(NC(=O)c1ccccc1)n1cncn1 (centres unmarked) [drawing 18] | 500
23 | CC(C)(C)C(O)C(NC(=O)c1ccccc1Cl)n1ccnc1 (centres unmarked) [drawing 19] | 28.8
24 | CC(C)(C)C(=O)C(NC(=O)c1cccc(Cl)c1)n1ccnc1 (centres unmarked) [drawing 20] | 28.8
25 | CC(C)(C)C(O)C(NC(=O)c1cc(Cl)ccc1Cl)n1cncn1 (centres unmarked) [drawing 23] | 40.0
26 | CC(C)(C)C(=O)C(NC(=O)Cc1ccccc1)n1cncn1 (centres unmarked) [drawing 24] | 40.0
27 | CC(C)(C)C(O)C(NC(=O)c1ccccc1)n1cncn1 (centres unmarked) [drawing 25] | 40.0

Tested on: soya bean plants
Experiment: Influence on growth/soya beans
Type: in vivo
Conditions: 0.05%; footnote *
Source text: influence on growth/soya beans
as §1
(§2) Emulsifier: 2 parts by weight of polyoxyethylene sorbitan monolaurate
To prepare a suitable preparation of active compound, 1 part by weight of active compound was mixed with the stated amounts of solvent and emulsifier and the mixture was made up to the desired concentration with water.
Young soya bean plants, in the stage in which the first secondary leaves had unfolded, were sprayed with the preparation of active compound until dripping wet. After 3 weeks, the additional growth was measured and the inhibition of growth in % of the additional growth of the control plants was calculated. 0% denoted growth corresponding to that of the control plants. Positive values characterized promotion of growth compared to the control plants while negative values corrrespondingly indicated an inhibition of growth.
The active compounds, concentrations of the active compounds and results can be seen from the table which follows: […]

Row | SMILES | Influence on growth, note on leaves
28 | CC(C)(C)C(=O)C(NC(=O)COc1ccc(Cl)cc1Cl)n1ccnc1 (centres unmarked) [drawing 38] | dark green leaves

Tested on: Podosphaera leucotricha
Experiment: Podosphaera test (apple)/protective
Type: in vivo
Conditions: 0.00125% active compound; protective; 10 days after inoculation; 0% = no infection, 100% = completely infected
Procedure: podosphaera test (apple)/protective Solvent: 4.7 parts by weight of acetone Emulsifier: 0.3 part by weight of alkylaryl polyglycol ether Water: 95 parts by weight The amount of active compound required for the desired concentration of the active compound in the spray liquid was mixed with the stated amount of solvent, and the concentrate was diluted with the stated amount of water which contained the stated additions. Young apple seedlings in the 4-6 leaved stage were sprayed with the spray liquid until dripping wet. The plants remained in a greenhouse for 24 hours at 20° C. and at a relative atmospheric humidity of 70%. They were then inoculated by dusting with conidia of the apple powdery mildew causative organism (Podosphaera leucotricha) and placed in a greenhouse at a temperature of 21°-23° C. and at a relative atmospheric humidity of about 70%. 10 days after the inoculation, the infection of the seedlings was determined. The ratings obtained were converted to percent infection. 0% meant no infection: 100% meant that the plants were completely infected. The active compounds, the concentrations of the active compounds and the results can be seen from the following table: […]

Row | SMILES | Infection in % at an active compound concentration of 0.00125% [%]
29 | c1ccc(C(c2ccccc2)(c2ccccc2)n2cncn2)cc1 [A, triphenyl-1,2,4-triazol-1-yl-methane, reference compound] | 85
30 | CC(C)(C)C(=O)C(NC(=O)c1ccc(Cl)cc1)n1cncn1 (centres unmarked) [Compound 1, 1-(p-chlorobenzamido)-3,3-dimethyl-1-(1,2,4-triazol-1-yl) butan-2-one] | 50

Tested on: barley plants
Experiment: Inhibition of growth/barley
Type: in vivo
Conditions: 0.05%; 100% = growth stopped, 0% = growth of untreated control
Source text: Inhibition of growth/barley
as §1, §2
To prepare a suitable preparation of active compound, 1 part by weight of active compound was mixed with the stated amount of solvent and emulsifier and the mixture was made up to the desired concentration with water.
Young barley plants, in the 2-leaf stage, were sprayed with the preparation of active compound until dripping wet. After the untreated control plants had reached a growth height of about 60 cm, the additional growth of all the plants was measured and the inhibition of growth in % of the additional growth of the control plants was calculated. 100% meant that growth had stopped and 0% denoted a growth corresponding to that of the untreated control plants.
The active compounds, concentrations of the active compounds and results can be seen from the table which follows.

Row | SMILES | Inhibition of growth in % [%]
31 | CC(C)(C)C(=O)C(NC(=O)COc1ccc(Cl)cc1Cl)n1ccnc1 (centres unmarked) [drawing 41] | 45

Tested on: Fusicladium dendriticum
Experiment: Fusicladium test (apple)/protective
Type: in vivo, Fusicladium dendriticum (apple scab) on apple seedlings
Conditions: 0.0025% active compound; protective; 15 days after inoculation; 0% = no infection, 100% = completely infected
Procedure: fusicladium test (apple)/Protective Solvent: 4.7 parts by weight of acetone Emulsifier: 0.3 part by weight of alkylaryl polyglycol ether Water: 95 parts by weight. The amount of active compound required for the desired concentration of the active compound in the spray liquid was mixed with the stated amount of solvent, and the concentrate was diluted with the stated amount of water which contained with stated additions. Young apple seedlings in the 4-6 leaved stage were sprayed with the spray liquid until dripping wet. The plants remained in a greenhouse for 24 hours at 20° C. and at a relative atmospheric humidity of 70%. They were then inoculated with an aqueous conidium suspension of the apple scab causative organism (Fusicladium dendriticum) and incubated for 18 hours in a humidity chamber at 18°-20° C. and at a relative atmospheric humidity of 100%. The plants were then brought into a greenhouse for 14 days. 15 days after inoculation, the infection of the seedlings was determined. The ratings obtained were converted to percent infection. 0% meant no infection; 100% meant that the plants were completely infected. The active compounds, the concentrations of the active compounds and the results can be seen from the following table: […]

Row | SMILES | Infection in % at an active compound concentration of 0.0025% [%]
32 | c1ccc(C(c2ccccc2)(c2ccccc2)n2cncn2)cc1 [A, triphenyl-1,2,4-triazol-1-yl-methane, reference compound] | 83
33 | CC(C)(C)C(=O)C(NC(=O)c1ccc(Cl)cc1)n1cncn1 (centres unmarked) [Compound 1, 1-(p-chlorobenzamido)-3,3-dimethyl-1-(1,2,4-triazol-1-yl) butan-2-one] | 50

Tested on: fungi
Experiment: not given
Conditions: German Offenlegungsschrift 1,795,249; cited from earlier work

Row | SMILES | fungicidal activity (prior art)
34 | c1ccc(C(c2ccccc2)(c2ccccc2)n2cncn2)cc1 [A, triphenyl-1,2,4-triazol-1-yl-methane, reference compound] | good fungicidal activity

Same assay, conditions: especially low amounts and low concentrations; cited from earlier work

Row | SMILES | action at low amounts and low concentrations (prior art)
35 | c1ccc(C(c2ccccc2)(c2ccccc2)n2cncn2)cc1 [A, triphenyl-1,2,4-triazol-1-yl-methane, reference compound] | not always entirely satisfactory
